In patent US6756210B2, “Linoleic acid diol and glucuronide conjugate levels as diagnostic markers of disorders of abnormal regulation of cytochrome P450 metabolism of unsaturated fatty acids” (The Regents of the University of California, priority 2001, dated 2004):
Read-outs that look alike come from different tables or passages of the source.

How the values were obtained:
[1] = target: T1, Human sEH (HsEH) (Homo sapiens, UniProt P34913); test: Inhibition of recombinant human sEH (HsEH); format: biochemical; details: HsEH 0.26 μM
T1 sequence (P34913 1-555): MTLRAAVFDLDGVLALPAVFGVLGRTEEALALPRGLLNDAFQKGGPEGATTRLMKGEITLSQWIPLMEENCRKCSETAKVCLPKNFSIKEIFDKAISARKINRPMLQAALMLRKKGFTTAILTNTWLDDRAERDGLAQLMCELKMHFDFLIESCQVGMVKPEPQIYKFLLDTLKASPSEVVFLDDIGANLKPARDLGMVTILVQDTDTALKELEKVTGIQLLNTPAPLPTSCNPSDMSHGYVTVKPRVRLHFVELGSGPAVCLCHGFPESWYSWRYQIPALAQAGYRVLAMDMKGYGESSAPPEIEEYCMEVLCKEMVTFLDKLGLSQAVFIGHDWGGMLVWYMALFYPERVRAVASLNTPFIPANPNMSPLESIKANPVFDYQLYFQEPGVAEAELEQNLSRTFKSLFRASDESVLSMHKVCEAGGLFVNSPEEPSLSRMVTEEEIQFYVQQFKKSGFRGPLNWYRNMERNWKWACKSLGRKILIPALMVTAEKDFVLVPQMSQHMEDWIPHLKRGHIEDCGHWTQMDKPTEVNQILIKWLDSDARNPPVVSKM

[2] = target: T2, recombinant mouse sEH (MsEH) (Mus musculus, UniProt P34914); test: Inhibition of recombinant mouse sEH (MsEH); format: biochemical
T2 sequence (P34914 1-554): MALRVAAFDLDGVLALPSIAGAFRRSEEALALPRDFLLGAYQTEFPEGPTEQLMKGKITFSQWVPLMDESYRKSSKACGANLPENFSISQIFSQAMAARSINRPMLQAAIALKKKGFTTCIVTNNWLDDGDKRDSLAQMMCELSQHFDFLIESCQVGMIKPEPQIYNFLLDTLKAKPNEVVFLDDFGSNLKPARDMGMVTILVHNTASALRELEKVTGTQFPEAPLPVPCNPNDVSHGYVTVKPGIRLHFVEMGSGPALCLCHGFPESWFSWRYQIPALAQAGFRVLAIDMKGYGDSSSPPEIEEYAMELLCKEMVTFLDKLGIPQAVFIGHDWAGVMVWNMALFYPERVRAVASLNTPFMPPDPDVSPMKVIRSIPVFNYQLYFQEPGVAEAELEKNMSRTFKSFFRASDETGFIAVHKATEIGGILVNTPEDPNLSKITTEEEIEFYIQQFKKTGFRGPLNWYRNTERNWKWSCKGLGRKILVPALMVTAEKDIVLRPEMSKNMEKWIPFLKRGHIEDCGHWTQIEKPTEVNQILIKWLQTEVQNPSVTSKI

[3] = Table 1, MsEH 0.13 μM, read-out: Mouse sEH IC50
[4] = Table 2, MsEH 0.13 μM, read-out: Mouse sEH IC50

Compound	IC50 ([1]; Table 1) [µM]	IC50 [2, 3] [µM]	IC50 ([1]; Table 2) [µM]	IC50 [2, 4] [µM]	IC50 [2] [µM]
O=C(NC(=O)c1ccc(Cl)cc1)NC1CCCCC1 [compound 257]	0.1 ± 0.04	0.05 ± 0.01	–	–	–
O=C(NCC12CC3CC(CC(C3)C1)C2)NC12CC3CC(CC(C3)C1)C2 [compound 412]	0.1 ± 0.01	0.05 ± 0.01	–	–	–
CCCCCCCCNC(=O)Nc1ccccc1 [compound 151]	0.58 ± 0.01	–	–	–	2.29 ± 0.03
O=C(c1ccccc1)C1OC1c1ccc(F)cc1 (racemic) [R=4-F-C6H4, R′=C6H5, X—Y=C═O, ±]	–	–	0.3 ± 0.1	1.3 ± 0.3	–
CCC(C)NC(=O)NC1CCCCC1 (centres unmarked) [compound 479]	5 ± 0.1	0.6 ± 0.06	–	–	–
COc1ccc(CCNC(=O)NC2CCCCC2)cc1OC [compound 384]	1 ± 0.2	0.05 ± 0.01	–	–	–
Cc1ccc(C(O)C2OC2c2ccc(-c3ccccc3)cc2)cc1 (racemic)	–	–	0.15 ± 0.02	0.09 ± 0.01	–
COC(c1ccccc1)C1OC1c1ccccc1 (racemic) [R=C6H5, R′=C6H5, X—Y=CH—OCH3, ±]	–	–	34 ± 1	103 ± 5	–
Nc1ccc(NC(=O)NC2CCCCC2)cc1 [compound 385]	2.2 ± 0.1	0.17 ± 0.02	–	–	–
O=C(NCCCN1CCOCC1)NC1CCCCC1 [compound 377]	17.8 ± 0.7	0.7 ± 0.1	–	–	–
CCCCCCCCNC(=O)NC(C)C [compound 183]	5.9 ± 0.3	1.06 ± 0.07	–	–	–
O=C(Nc1c2ccccc2nc2ccccc12)NC1CCCCC1 [compound 559]	0.14 ± 0.01	0.08 ± 0.01	–	–	–
O=C(NC1CCCCC1)OC1C2CC3CC(C2)CC1C3 (centres unmarked) [compound 260]	0.1 ± 0.01	0.06 ± 0.01	–	–	–
O=C(NC1CCCCC1)OCCCCc1ccc([N+](=O)[O-])cc1 [compound 460]	0.18 ± 0.01	0.1 ± 0.02	–	–	–
O=C(NC1CCCCC1)NC1CCCC1 [compound 23]	1.69 ± 0.05	0.1 ± 0.01	–	–	–
O=C(Nc1cccc(Cl)c1)NC1CCCCC1 [compound 44]	–	0.07 ± 0.01	–	–	–
OC[C@@H]1O[C@H]1c1ccccc1 [R=C6H5, R′=H, X—Y=CH—OH, S, S]	–	–	–	2400 ± 46	–
CC(C)c1ccc(NC(=O)NCCc2ccccc2)cc1 [compound 156]	0.48 ± 0.01	0.2 ± 0.01	–	–	–
O=C(CC1CCCCC1)NC1CCCCC1 [compound 187]	0.42 ± 0.03	0.05 ± 0.01	–	–	–
ON=C(c1ccccc1)C1OC1c1ccc(-c2ccccc2)cc1 (racemic) [R=4-C6H5—C6H4, R′=C6H5, X—Y=C═NOH, ±]	–	–	35 ± 1	42 ± 3	–
O=C(NC1CCCCC1)Oc1ccccc1CO [compound 224]	0.32 ± 0.08	–	–	–	0.99 ± 0.02
CCCCCCCCCCNC(=O)NC1CCCCC1 [compound 153]	0.1 ± 0.01	0.06 ± 0.01	–	–	–
CCCCCCCCCCOC(=O)NC [compound 248]	2.9 ± 0.6	–	–	–	0.33 ± 0.05
O=C(NCCCCCCO)NC1CCCCC1 [compound 344]	2.5 ± 0.08	0.05 ± 0.01	–	–	–
O=C(Nc1ccc(Cl)cc1)Nc1ccc(Cl)c(Cl)c1	0.12 ± 0.01	–	–	–	0.36 ± 0.02
CCCCCCCCCCCCNC(=O)NC1CCCCC1 [compound 297]	0.1 ± 0.01	0.05 ± 0.01	–	–	–
O=[N+]([O-])c1ccc([C@@H]2O[C@H]2CO)cc1 [R=4-NO2—C6H4, R′=H, X—Y=CH—OH, S, S]	–	–	–	1.6 ± 0.6	–
O=[N+]([O-])c1ccc([C@H]2O[C@@H]2CO)cc1 [R=4-NO2—C6H4, R′=H, X—Y=CH—OH, R, R]	–	–	–	1200 ± 25	–
CCCCCCCCCCCCCC(=O)NC1CCCCC1 [compound 515]	–	0.19 ± 0.05	–	–	–
O=C(Nc1ccc(Cl)c(Cl)c1)Nc1ccc(Cl)c(Cl)c1 [compound 299]	0.26	–	–	–	–

Now from value to molecule, other results behind:

IC50 ([1]; Table 1) [µM]	IC50 [2, 3] [µM]	IC50 ([1]; Table 2) [µM]	IC50 [2, 4] [µM]	Compound	IC50 [2] [µM]
0.1 ± 0.01	0.05 ± 0.01	–	–	O=C(NC12CC3CC(CC(C3)C1)C2)NC12CC3CC(CC(C3)C1)C2 [compound 411]	–
3.7 ± 0.3	0.05 ± 0.01	–	–	C[C@@H](NC(=O)NC1CCCCC1)c1ccccc1 [compound 545]	–
0.1 ± 0.01	0.05 ± 0.01	–	–	O=C(NCCCc1ccccc1)NC12CC3CC(CC(C3)C1)C2 [compound 438]	–
2.03 ± 0.07	0.25 ± 0.01	–	–	O=C(NCC1CCCCC1)C1CCCCC1 [compound 374]	–
0.13 ± 0.01	0.06 ± 0.01	–	–	O=C(NC1CCCCC1)OC1CCCCC1 [compound 42]	–
0.68 ± 0.03	0.73 ± 0.03	–	–	CCCCCCCCNC(=O)NCCC [compound 380]	–
0.1 ± 0.01	0.05 ± 0.01	–	–	CCCCCCCCCNC(=O)NC1CCCCC1 [compound 473]	–
0.48 ± 0.01	0.85 ± 0.02	–	–	O=C(Nc1cccc2ccccc12)NC1CCCCC1 [compound 59]	–
0.1 ± 0.01	0.05 ± 0.01	–	–	CCCCCCCCCCCCCNC(=O)NC1CCCCC1 [compound 354]	–
0.1 ± 0.01	0.05 ± 0.01	–	–	O=C(NC1CCCCC1)NC1CC2CCC1C2 (centres unmarked) [compound 543]	–
0.1 ± 0.01	0.05 ± 0.01	–	–	O=C(NC1CCCCCCCCCCC1)NC12CC3CC(CC(C3)C1)C2 [compound 413]	–
0.22 ± 0.02	0.12 ± 0.01	–	–	C=C(C)CCOC(=O)NC1CCCCC1 [compound 277]	–
0.72 ± 0.02	0.09 ± 0.01	–	–	CCCCCCCCNC(=O)NCCCCC [compound 125]	–
0.1 ± 0.01	0.05 ± 0.1	–	–	O=C(Nc1nnn[nH]1)NC1CCCCC1 [compound 533]	–
–	0.27 ± 0.01	–	–	CCCCCCCCCCCCNC(=O)OC1CCCCC1 [compound 514]	–
0.15 ± 0.01	0.07 ± 0.01	–	–	O=C(Nc1ccncc1)NC1CCCCC1 [compound 100]	–
0.1 ± 0.02	0.05 ± 0.01	–	–	O=C(NC1CCCCC1)OCc1cccc2ccccc12 [compound 262]	–
0.43 ± 0.02	0.78 ± 0.02	–	–	O=C(Nc1ccc(F)cc1)NC1CCCCC1 [compound 60]	–
0.12 ± 0.01	0.06 ± 0.01	–	–	CCCCCCCCNC(=O)NC1CCCCC1 [compound 168]	–
1.5 ± 0.1	0.05 ± 0.01	–	–	CN(C)c1ccc(NC(=O)NC2CCCCC2)cc1 [compound 362]	–
0.36 ± 0.02	0.17 ± 0.01	–	–	O=C(Nc1ccc([N+](=O)[O-])cc1)NC1CCCCC1 [compound 38]	–
0.1 ± 0.01	0.05 ± 0.01	–	–	O=C(Nc1ccc(Oc2ccccc2)cc1)NC1CCCCC1 [compound 140]	–

IC50 ([1]; Table 1) [µM]	IC50 [2, 3] [µM]	IC50 ([1]; Table 2) [µM]	IC50 [2, 4] [µM]	Compound	IC50 [2] [µM]
0.1 ± 0.01	0.05 ± 0.01	–	–	CC1CCC(NC(=O)NC2CCCCC2)CC1 (centres unmarked) [compound 538]	–
0.1 ± 0.01	0.05 ± 0.01	–	–	O=C(NC1CCCCCCCCCCC1)NC1CCCCC1 [compound 119]	–
0.14 ± 0.01	0.05 ± 0.01	–	–	CC(C)(C)OC(=O)NCCNC(=O)NC1CCCCC1 [compound 124]	–
–	–	18 ± 2	72 ± 16	OC(c1ccccc1)C1OC1c1ccc(F)cc1 (racemic) [R=4-F-C6H4, R′=C6H5, X—Y=CH—OH, ±]	–
1 ± 0.2	0.8 ± 0.03	–	–	CCCNC(=O)NC1CCCCCCCCCCC1 [compound 189]	–
0.13 ± 0.01	0.06 ± 0.01	–	–	O=C(NCC1CCCCC1)Nc1ccc2ccccc2c1 [compound 169]	–
0.55 ± 0.02	0.42 ± 0.01	–	–	O=C(NCCc1cnc[nH]1)NC1CCCCC1 [compound 461]	–
1.43 ± 0.03	0.85 ± 0.01	–	–	CCCCCCNC(=O)Nc1ccccc1 [compound 157]	–
0.24 ± 0.01	–	–	–	CCCCCCCCNC(=O)NCCCCCC [compound 175]	–
0.19 ± 0.01	0.05 ± 0.01	–	–	O=C(NCc1ccc(Cl)cc1)NC1CCCCC1 [compound 193]	–
0.1 ± 0.02	0.45 ± 0.09	–	–	O=C(NC1CCCCC1)OCc1ccc(-c2ccccc2)cc1 [compound 259]	–
0.48 ± 0.01	0.11 ± 0.01	–	–	CCCCCCCCNC(=O)OC [compound 72]	–
1.5 ± 0.1	0.05 ± 0.01	–	–	Nc1ccc(CNC(=O)NC2CCCCC2)cc1 [compound 379]	–
0.28 ± 0.01	0.1 ± 0.02	–	–	CCCNC(=O)Nc1cccc2ccccc12 [compound 253]	–
0.07 ± 0.02	0.11 ± 0.03	–	–	CCCCCCNC(=O)NC1CCCCC1 [compound 286]	–
2.5 ± 0.03	0.73 ± 0.08	–	–	O=C(NCc1ccncc1)NC1CCCCC1 [compound 188]	–
0.23 ± 0.01	0.06 ± 0.01	–	–	CC(C)(C)c1ccc(NC(=O)NC2CCCCC2)cc1 [compound 75]	–
–	–	–	5 ± 1	O=[N+]([O-])c1ccc(C2OC2CO)cc1 (racemic) [R=4-NO2—C6H4, R′=H, X—Y=CH—OH, ±]	–
–	0.05 ± 0.01	–	–	O=C(NC1CCCCCCC1)NC1CCCCC1 [compound 58]	–
–	–	–	1100 ± 23	OC[C@H]1O[C@@H]1c1ccccc1 [R=C6H5, R′=H, X—Y=CH—OH, R, R]	–
–	0.09 ± 0.01	–	–	CC(C)c1ccc(NC(=O)NC2CCCCC2)cc1 [compound 66]	–
